Source: article PMC7123187 (HCV: The Journey from Discovery to a Cure, 2018)
Read-outs that look alike come from different tables or passages of the source.

What was measured:
[1] = test system: BVDV, polio, rhino, corona, coxsackie, influenza, and human immunodeficiency viruses (HIV); assay: organism not typed; format: cell-based; conditions: read-out: EC50 against panel of viruses
[2] = target: human pregnane X receptor (hPXR) (Homo sapiens, UniProt O75469); conditions: at 5.56 μM
in vitro [3] = conditions: monkey, microsomes
[4] = target: human phosphodiesterase 4; assay: Phosphodiesterase 4 functional assay; format: biochemical; conditions: read-out: IC50 phosphodiesterase 4 functional assay
CYP 3A4 = CYP 3A4 (Homo sapiens, UniProt P08684); assay: in vitro
Chain of CYP 3A4 (P08684 whole entry): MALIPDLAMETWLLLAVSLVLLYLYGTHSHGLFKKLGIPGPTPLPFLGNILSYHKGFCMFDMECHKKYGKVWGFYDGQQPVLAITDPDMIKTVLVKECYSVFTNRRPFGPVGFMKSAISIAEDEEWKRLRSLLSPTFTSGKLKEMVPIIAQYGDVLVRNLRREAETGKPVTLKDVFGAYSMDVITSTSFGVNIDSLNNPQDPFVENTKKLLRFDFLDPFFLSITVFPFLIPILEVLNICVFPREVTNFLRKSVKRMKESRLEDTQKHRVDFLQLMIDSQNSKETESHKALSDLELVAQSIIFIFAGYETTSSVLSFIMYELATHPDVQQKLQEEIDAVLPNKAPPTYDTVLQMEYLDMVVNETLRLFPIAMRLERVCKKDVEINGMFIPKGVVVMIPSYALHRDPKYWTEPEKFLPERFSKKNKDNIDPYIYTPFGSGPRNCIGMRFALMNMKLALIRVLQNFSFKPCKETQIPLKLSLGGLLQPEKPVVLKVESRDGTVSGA

in vitro [5] = format: in vitro ADME; conditions: human, microsomes
NS5B P495L = NS5B P495L (Hepatitis C virus genotype 1b, UniProt Q9WMX2, P2914L); assay: biochemical
physchem = conditions: pKa values, zwitterionic form
[6] = rat; for liver levels: satellite study
[7] = target: recombinant wild-type NS5B (genotype 1b, Con1) (Hepatitis C virus genotype 1b, UniProt Q9WMX2); assay: biochemical
in vivo = conditions: rat
in vitro [8] = assay: in vitro
[9] = test system: chronic HCV genotype 1 infection; conditions: patients, cited from earlier work
[10] = test system: HCV genotype 1b (Con1) replicon in Huh-7; assay: microbe, parasite or virus in culture; format: cell-based; conditions: Hepatitis C virus, GETYPE1B, Huh-7, read-out: potency in the replicon assays

Chain of human pregnane X receptor (hPXR) (O75469 whole entry): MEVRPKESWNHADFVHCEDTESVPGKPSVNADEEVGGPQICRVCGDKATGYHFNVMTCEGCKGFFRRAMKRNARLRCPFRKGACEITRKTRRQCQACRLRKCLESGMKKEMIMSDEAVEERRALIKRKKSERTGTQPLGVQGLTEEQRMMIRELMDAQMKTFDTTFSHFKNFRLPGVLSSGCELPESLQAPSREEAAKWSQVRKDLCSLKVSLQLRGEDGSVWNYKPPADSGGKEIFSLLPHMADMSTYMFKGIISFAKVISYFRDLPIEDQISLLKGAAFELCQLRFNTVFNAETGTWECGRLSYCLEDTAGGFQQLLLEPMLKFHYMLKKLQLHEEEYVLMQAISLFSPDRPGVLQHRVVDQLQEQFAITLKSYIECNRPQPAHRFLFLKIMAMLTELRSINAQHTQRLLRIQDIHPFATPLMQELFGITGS

COc1ccc2c(c1)[C@@H]1C[C@]1(C(=O)N1[C@@H]3CC[C@H]1CN(C)C3)Cn1c-2c(C2CCCCC2)c2ccc(C(=O)NS(=O)(=O)N(C)C)cc21 [Compound 66, beclabuvir]
EC50 [1]: > 14 µM | hPXR transactivation Y max [2]: 8.1 ± 1.9 | half-life (in vitro [3]): 23 min | IC50 [4]: > 10 µM | IC50 (CYP 3A4): > 40 µM | half-life (in vitro [5]): 53 min | IC50 (NS5B P495L): 0.19 µM | pKa (physchem): 4.6 | liver levels ([6]; 4 h following oral dosing): 24,400 nM | liver levels ([6]; 24 h following oral dosing): 1,700 nM | Cl ([6]; in vivo, iv, 5 mg/kg): 3.5 (±0.8) mL/min/kg | IC50 [7]: 0.02 µM | AUC(0-inf) (in vivo; iv, 5 mg/kg): 30 µM·h | Cmax (in vivo; iv, 5 mg/kg): 12.1 µM | half-life (in vivo; iv, 5 mg/kg): 672 min | AUC(0-inf) (in vivo; po, 10 mg/kg): 39.3 µM·h | Cmax (in vivo; po, 10 mg/kg): 3.26 µM | CC50 (in vitro [8]): 14 to 48 µM | decline in viral load ([9]; 300 mg single dose, 24 h post-dosing): approximately 2.5 log10 IU/mL | tolerability ([9]; single doses 100-900 mg): well tolerated | bound to human serum: 98% | EC50 [10]: < 0.01 µM
